Data: patent US12441726B2, “Compounds and uses thereof” (Foghorn Therapeutics Inc., priority 2020, dated 2025)

Key:
[1] = biological target: BRM (Homo sapiens, UniProt P51531); test: ATPase catalytic activity assay (ADP-Glo), BRM; conditions: 30 nM BRM, 400 μM ATP; for IC50: BRM ATPase: IC50 (uM)
[2] = biological target: BRG-1 (Homo sapiens, UniProt P51532); test: ATPase catalytic activity assay (ADP-Glo), BRG-1; conditions: for Emax: 1 h, read-out: BRG1 Max % Inhibition, ADP-Glo, 30 nM BRG-1, 400 μM ATP
Sequence of BRG-1 (P51532 whole entry): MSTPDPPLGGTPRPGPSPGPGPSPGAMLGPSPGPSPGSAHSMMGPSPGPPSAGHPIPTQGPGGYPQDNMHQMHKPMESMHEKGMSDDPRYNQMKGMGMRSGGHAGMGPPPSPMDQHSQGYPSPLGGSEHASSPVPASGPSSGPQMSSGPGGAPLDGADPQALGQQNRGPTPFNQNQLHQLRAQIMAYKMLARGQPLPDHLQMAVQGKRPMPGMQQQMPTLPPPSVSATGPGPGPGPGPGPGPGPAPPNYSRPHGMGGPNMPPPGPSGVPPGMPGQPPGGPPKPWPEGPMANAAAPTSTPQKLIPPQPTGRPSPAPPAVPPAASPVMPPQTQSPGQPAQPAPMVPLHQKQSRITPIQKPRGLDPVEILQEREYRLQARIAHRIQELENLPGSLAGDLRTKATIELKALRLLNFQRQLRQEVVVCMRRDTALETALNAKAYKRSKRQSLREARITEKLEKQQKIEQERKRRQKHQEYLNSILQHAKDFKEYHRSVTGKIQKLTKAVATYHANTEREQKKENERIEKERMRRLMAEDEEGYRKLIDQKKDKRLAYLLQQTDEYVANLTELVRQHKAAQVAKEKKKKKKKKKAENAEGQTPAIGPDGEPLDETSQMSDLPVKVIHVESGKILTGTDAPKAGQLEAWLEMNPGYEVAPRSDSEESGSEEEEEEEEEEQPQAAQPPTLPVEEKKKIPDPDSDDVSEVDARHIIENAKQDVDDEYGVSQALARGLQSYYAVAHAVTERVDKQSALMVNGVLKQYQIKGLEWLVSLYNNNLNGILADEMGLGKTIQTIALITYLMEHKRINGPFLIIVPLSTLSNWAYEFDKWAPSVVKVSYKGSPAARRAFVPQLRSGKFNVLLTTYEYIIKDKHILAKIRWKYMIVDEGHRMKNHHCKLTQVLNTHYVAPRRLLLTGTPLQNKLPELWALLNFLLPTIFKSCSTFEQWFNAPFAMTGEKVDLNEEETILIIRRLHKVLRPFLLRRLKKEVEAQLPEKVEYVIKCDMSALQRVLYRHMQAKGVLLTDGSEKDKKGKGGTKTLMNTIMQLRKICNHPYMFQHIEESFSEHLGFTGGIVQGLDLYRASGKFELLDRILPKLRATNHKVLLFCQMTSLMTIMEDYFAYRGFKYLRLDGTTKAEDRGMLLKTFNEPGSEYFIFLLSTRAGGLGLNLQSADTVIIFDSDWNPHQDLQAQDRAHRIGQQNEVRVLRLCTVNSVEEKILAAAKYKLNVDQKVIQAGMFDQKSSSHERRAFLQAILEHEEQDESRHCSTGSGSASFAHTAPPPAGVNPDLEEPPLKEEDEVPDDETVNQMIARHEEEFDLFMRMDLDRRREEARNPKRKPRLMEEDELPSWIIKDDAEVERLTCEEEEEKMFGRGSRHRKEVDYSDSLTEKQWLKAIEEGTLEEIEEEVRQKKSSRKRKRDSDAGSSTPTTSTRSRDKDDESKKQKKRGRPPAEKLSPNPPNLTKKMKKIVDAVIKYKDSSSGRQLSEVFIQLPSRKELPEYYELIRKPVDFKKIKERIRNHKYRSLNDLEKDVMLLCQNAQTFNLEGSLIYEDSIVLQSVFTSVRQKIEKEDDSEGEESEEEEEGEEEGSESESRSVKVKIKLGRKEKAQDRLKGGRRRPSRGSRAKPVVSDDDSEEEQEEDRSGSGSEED

Sequence of BRM (P51531 whole entry): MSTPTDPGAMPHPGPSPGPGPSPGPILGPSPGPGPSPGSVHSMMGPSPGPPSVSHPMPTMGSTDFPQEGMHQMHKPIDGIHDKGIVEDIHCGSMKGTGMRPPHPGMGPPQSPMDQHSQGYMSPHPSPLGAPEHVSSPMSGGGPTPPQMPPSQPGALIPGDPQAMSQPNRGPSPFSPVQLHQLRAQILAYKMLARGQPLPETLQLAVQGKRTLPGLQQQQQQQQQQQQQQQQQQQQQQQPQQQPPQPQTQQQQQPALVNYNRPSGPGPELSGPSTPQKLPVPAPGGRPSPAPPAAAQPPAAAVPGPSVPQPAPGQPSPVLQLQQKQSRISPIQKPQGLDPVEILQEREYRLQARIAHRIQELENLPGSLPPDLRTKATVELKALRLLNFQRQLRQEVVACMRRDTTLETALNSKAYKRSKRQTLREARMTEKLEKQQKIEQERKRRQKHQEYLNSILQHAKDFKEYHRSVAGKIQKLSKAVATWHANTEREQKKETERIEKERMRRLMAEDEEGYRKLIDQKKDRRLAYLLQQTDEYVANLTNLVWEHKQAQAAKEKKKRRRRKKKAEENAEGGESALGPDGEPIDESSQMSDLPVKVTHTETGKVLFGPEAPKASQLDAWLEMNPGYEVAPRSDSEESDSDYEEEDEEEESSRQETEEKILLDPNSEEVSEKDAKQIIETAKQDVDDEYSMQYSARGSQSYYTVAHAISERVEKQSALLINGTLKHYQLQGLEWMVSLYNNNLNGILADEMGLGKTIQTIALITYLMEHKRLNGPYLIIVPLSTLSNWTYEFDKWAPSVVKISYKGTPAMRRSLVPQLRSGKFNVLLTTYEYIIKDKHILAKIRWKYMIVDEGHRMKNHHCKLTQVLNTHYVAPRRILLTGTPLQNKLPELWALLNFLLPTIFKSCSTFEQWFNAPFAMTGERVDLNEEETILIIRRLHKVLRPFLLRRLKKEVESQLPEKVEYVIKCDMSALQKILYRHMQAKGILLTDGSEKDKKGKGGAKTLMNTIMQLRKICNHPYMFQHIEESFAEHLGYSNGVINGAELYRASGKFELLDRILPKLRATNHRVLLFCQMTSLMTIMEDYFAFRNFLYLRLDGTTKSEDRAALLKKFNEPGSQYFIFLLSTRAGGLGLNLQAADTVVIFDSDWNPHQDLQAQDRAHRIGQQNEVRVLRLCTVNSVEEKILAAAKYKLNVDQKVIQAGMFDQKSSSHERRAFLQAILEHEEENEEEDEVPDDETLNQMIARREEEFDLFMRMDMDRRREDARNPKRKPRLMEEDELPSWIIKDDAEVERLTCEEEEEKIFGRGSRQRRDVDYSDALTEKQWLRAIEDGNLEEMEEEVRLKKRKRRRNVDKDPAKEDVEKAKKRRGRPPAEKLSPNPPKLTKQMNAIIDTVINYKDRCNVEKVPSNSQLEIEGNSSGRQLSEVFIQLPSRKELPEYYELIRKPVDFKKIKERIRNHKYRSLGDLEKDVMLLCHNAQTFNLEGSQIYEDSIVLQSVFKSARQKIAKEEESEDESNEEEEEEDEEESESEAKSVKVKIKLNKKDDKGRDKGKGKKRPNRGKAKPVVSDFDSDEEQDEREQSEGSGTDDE

BRM Max % Inhibition [1]	IC50 [1]	IC50 [2]	Emax [2]	SMILES
93%	< 0.1 µM	0.1 to 0.5 µM	82%	C[C@@]1(C#N)COCc2ccc(C(=O)NCc3cc4nc(-c5cncc(N6CCC6)n5)sc4cn3)cc21 [Compound 353]
79%	0.1 to 0.5 µM	> 1 µM	39%	COc1ncccc1-c1nc2cc(CNC(=O)c3ccc4c(c3)[C@](C)(C#N)COC4)ncc2s1 [Compound 354]
93%	0.1 to 0.5 µM	0.5 to 1 µM	74%	C[C@@]1(C#N)COCc2ccc(C(=O)NCc3cc4nc(-c5cncc(C(F)F)n5)ccc4cn3)cc21 [Compound 355]
97%	< 0.1 µM	0.1 to 0.5 µM	95%	C[C@@]1(C#N)COCc2ccc(C(=O)NCc3cc4cc(-c5cncc(N6CCC6)n5)ccc4nn3)cc21 [Compound 356]
97%	< 0.1 µM	0.1 to 0.5 µM	87%	COc1ncccc1-c1ccc2nnc(CNC(=O)c3ccc4c(c3)[C@](C)(C#N)COC4)cc2c1 [Compound 357]
92%	0.1 to 0.5 µM	0.5 to 1 µM	67%	C[C@@]1(C#N)COCc2ccc(C(=O)NCc3cc4nc(-c5ccnc(C(F)F)n5)ccc4cn3)cc21 [Compound 358]
89%	0.1 to 0.5 µM	> 1 µM	39%	CN1CC(c2cccc(-c3ccc4cnc(CNC(=O)c5ccc6c(c5)[C@](C)(C#N)COC6)cc4n3)n2)C1 [Compound 359]
99%	< 0.1 µM	> 1 µM	99%	CN(C)c1cccc(-c2ccc3cnc(CNC(=O)c4ccc5c(c4)[C@](C)(C#N)COC5)cc3n2)n1 [Compound 360]
98%	< 0.1 µM	> 1 µM	98%	C[C@@]1(C#N)COCc2ccc(C(=O)NCc3cc4nc(-c5cccc(N6CCCC6)n5)ccc4cn3)cc21 [Compound 361]
99%	< 0.1 µM	> 1 µM	98%	C[C@@H]1CN(c2nccc(-c3ccc4cnc(CNC(=O)c5ccc6c(c5)[C@](C)(C#N)COC6)cc4n3)n2)CCO1 [Compound 362]
98%	< 0.1 µM	0.1 to 0.5 µM	94%	C[C@@H]1COCCN1c1nccc(-c2ccc3cnc(CNC(=O)c4ccc5c(c4)[C@](C)(C#N)COC5)cc3n2)n1 [Compound 363]
90%	0.1 to 0.5 µM	0.5 to 1 µM	62%	Cn1cc(-c2ccc3cnc(CNC(=O)c4ccc5c(c4)[C@](C)(C#N)COC5)cc3n2)c(F)n1 [Compound 364]
99%	< 0.1 µM	0.1 to 0.5 µM	98%	C[C@@]1(C#N)COCc2ccc(C(=O)NCc3cc4cc(-c5nccc(N6CCC6)n5)ccc4cn3)cc21 [Compound 365]
99%	< 0.1 µM	< 0.1 µM	99%	CO[C@@H]1CCN(c2cncc(-c3ccc4cnc(CNC(=O)c5ccc6c(c5)[C@](C)(C#N)COC6)cc4c3)n2)C1 [Compound 366]
102%	< 0.1 µM	0.1 to 0.5 µM	93%	COc1nn(C)cc1-c1ccc2cnc(CNC(=O)c3ccc4c(c3)[C@](C)(C#N)COC4)cc2c1 [Compound 367]
103%	< 0.1 µM	0.1 to 0.5 µM	96%	C[C@@]1(F)COCc2ccc(C(=O)NCc3cc4cc(-c5cccc(N6CCC6)n5)ccc4cn3)cc21 [Compound 368]
104%	< 0.1 µM	< 0.1 µM	95%	C[C@@]1(C#N)COCc2ccc(C(=O)NCc3cc4cc(-c5cccc(N6CCC6)n5)ccc4cn3)cc21 [Compound 369]
103%	< 0.1 µM	0.1 to 0.5 µM	96%	C[C@@]1(F)COCc2ccc(C(=O)NCc3cc4cc(-c5cncc(N6CCC6)n5)ccc4cn3)cc21 [Compound 370]
104%	< 0.1 µM	< 0.1 µM	97%	C[C@@]1(C#N)COCc2ccc(C(=O)NCc3cc4cc(-c5cncc(N6CCC6)n5)ccc4cn3)cc21 [Compound 371]
93%	0.1 to 0.5 µM	> 1 µM	47%	C[C@@]1(C#N)COCc2ccc(C(=O)NCc3cc4cc(-c5nccc(N6CCC6)n5)cnc4cn3)cc21 [Compound 372]

The next lines start with the compound.

SMILES	BRM Max % Inhibition [1]	IC50 [1]	IC50 [2]	Emax [2]
C[C@@]1(C#N)COCc2ccc(C(=O)NCc3cc4c(cn3)CCN(c3ccnc(N5CCOCC5)n3)C4)cc21 [Compound 330]	93%	0.1 to 0.5 µM	0.5 to 1 µM	64%
C[C@@]1(C#N)COCc2ccc(C(=O)NCc3cc4c(cn3)CCN(c3ccnc(N5CCCC5)n3)C4)cc21 [Compound 331]	97%	0.1 to 0.5 µM	0.5 to 1 µM	73%
C[C@@]1(C#N)COCc2ccc(C(=O)NCc3cc4c(cn3)CCN(c3ccnc(N5CCC5)n3)C4)cc21 [Compound 332]	96%	0.1 to 0.5 µM	0.5 to 1 µM	67%
COc1nn(C)cc1-c1ccc2cnc(CNC(=O)c3cc(F)c4c(c3)[C@](C)(F)COC4)cc2n1 [Compound 333]	100%	< 0.1 µM	0.5 to 1 µM	79%
COc1nn(C)cc1-c1ccc2cnc(CNC(=O)c3cnc4c(c3)[C@](C)(F)COC4)cc2n1 [Compound 334]	96%	0.1 to 0.5 µM	0.5 to 1 µM	61%
C[C@@]1(C#N)COCc2ccc(C(=O)NCc3cc4cc(-c5nccc(N6CCC6)n5)ccc4nn3)cc21 [Compound 335]	101%	< 0.1 µM	0.1 to 0.5 µM	84%
C[C@@]1(C#N)COCc2ccc(C(=O)NCc3cc4cc(-c5ccnc(N6CCC6)n5)ccc4nn3)cc21 [Compound 336]	99%	< 0.1 µM	0.1 to 0.5 µM	92%
C[C@@]1(C#N)COCc2ccc(C(=O)NCc3cc4cc(-c5ccnc(C6CC6)n5)cnc4cn3)cc21 [Compound 337]	99%	0.1 to 0.5 µM	0.5 to 1 µM	63%
COc1nn(C)cc1-c1cnc2cnc(CNC(=O)c3ccc4c(c3)[C@](C)(F)COC4)cc2c1 [Compound 338]	97%	0.1 to 0.5 µM	0.5 to 1 µM	56%
CO[C@H]1CCN(c2nccc(-c3ccc4cnc(CNC(=O)c5ccc6c(c5)[C@](C)(C#N)COC6)cc4n3)n2)C1 [Compound 339]	100%	< 0.1 µM	0.1 to 0.5 µM	95%
C[C@@]1(C#N)COCc2ccc(C(=O)NCc3cc4nc(-c5ccnc(N6C[C@@H]7C[C@H]6CO7)n5)ccc4cn3)cc21 [Compound 340]	99%	< 0.1 µM	0.1 to 0.5 µM	91%
C[C@@]1(C#N)COCc2ccc(C(=O)NCc3cc4nc(-c5ccnc(N6CC[C@H](F)C6)n5)ccc4cn3)cc21 [Compound 341]	100%	< 0.1 µM	0.1 to 0.5 µM	93%
C[C@@]1(C#N)COCc2ccc(C(=O)NCc3cc4cc(-c5cncc(C6CC6)n5)cnc4cn3)cc21 [Compound 342]	97%	< 0.1 µM	0.5 to 1 µM	80%
COc1nn(C)cc1-c1ccc2cnc(CNC(=O)c3ccc4c(c3)[C@](C)(F)COC4)cc2n1 [Compound 343]	101%	< 0.1 µM	0.5 to 1 µM	78%
COc1cncc(-c2nc3cc(CNC(=O)c4ccc5c(c4)[C@](C)(C#N)COC5)ncc3s2)n1 [Compound 344]	94%	0.1 to 0.5 µM	0.5 to 1 µM	57%
COC(=O)N1CCC=C(c2ccc3cnc(CNC(=O)c4ccc5c(c4)[C@](C)(F)COC5)cc3n2)C1 [Compound 345]	81%	0.1 to 0.5 µM	> 1 µM	25%
Cn1ccc2ncc(-c3ccc4cnc(CNC(=O)c5ccc6c(c5)[C@](C)(C#N)COC6)cc4n3)nc21 [Compound 346]	102%	< 0.1 µM	< 0.1 µM	94%
C[C@@]1(F)COCc2ccc(C(=O)NCc3cc4cc(-c5cccc(N6CCC6)n5)cnc4cn3)cc21 [Compound 347]	100%	< 0.1 µM	0.1 to 0.5 µM	79%
C[C@@]1(C#N)COCc2ccc(C(=O)NCc3cc4nc(-c5ccnc(N6CCC6)n5)sc4cn3)cc21 [Compound 348]	99%	< 0.1 µM	0.5 to 1 µM	72%
COc1cncc(-c2ccc3nnc(CNC(=O)c4ccc5c(c4)[C@](C)(C#N)COC5)cc3c2)n1 [Compound 349]	100%	< 0.1 µM	0.1 to 0.5 µM	87%
C[C@@]1(C#N)COCc2ccc(C(=O)NCc3cc4nc(N5CCCN(C6CCC6)C5=O)ccc4cn3)cc21 [Compound 350]	96%	0.1 to 0.5 µM	> 1 µM	54%
C[C@@]1(C#N)COCc2ccc(C(=O)NCc3cc4cc(-c5cccc(N6CCC6)n5)ccc4nn3)cc21 [Compound 351]	101%	< 0.1 µM	0.1 to 0.5 µM	95%
O=C(NCc1cc2nc(-c3cncc(N4CCC4)n3)ccc2cn1)c1cc(F)c2c(c1)[C@@](F)(C(F)F)COC2 [Compound 352]	99%	< 0.1 µM	0.1 to 0.5 µM	89%
